Experimental data taken from patent US11987804B2, “Rapamycin resistant cells” (Seattle Children's Hospital, priority 2018, dated 2024).

Columns and labels:
CD4+ T cells [1] = assay: Selective expansion of DISC/HA-FOXP3 edited Treg cells (flow cytometry for HA tag and FOXP3); type: cell-based, human; details: 50 ng/mL IL-2, 10 nM Rapamycin or 100 nM AP21967
From the text: This Example illustrates the use of gene editing technology to knock-in a construct encoding the DISC and a promoter upstream of the endogenous FOXP3 (Forkhead box P3) locus in CD4+ T cells. […] In brief, a CRISPR/CAS9 ribonucleoprotein containing a guide RNA (gRNA) specific for a locus 5′ of exon 1 of FOXP3 was used in combination with an adeno-associated virus 6 (AAV6) donor template for FOXP3 gene editing The gRNA included a spacer having the sequence of SE ID NO:58. An ectopic MND promoter was introduced to drive DISC expression upstream of endogenous FOXP3. Expression of FOXP3 was designed to be in-frame with an N-terminal hemagglutinin (HA) epitope tag and nuclear localization sequence to generate a chimeric protein.

[2] = test system: primary human CD4+ T cells; assay: Three-phase expansion protocol for μDISC edTreg (flow cytometry HA/FOXP3, cell counts); type: cell-based; details: for Day-3 flow cytometry Q4 / Day-10 flow cytometry Q3 / Day-10 flow cytometry Q4 / Day-15 flow cytometry Q4: Expansion Phase 0 additive 50 μg/mL IL-2, 10 nM rapamycin or 100 nM AP21967; for Day-3 flow cytometry Q1 / Day-10 flow cytometry Q1 / Day-15 flow cytometry Q1: Q1 = HA- FOXP3+; for Day-10 flow cytometry Q3 / Day-10 flow cytometry Q4 / Day-10 flow cytometry Q1: after Expansion Phase 1; for Day-15 flow cytometry Q4 / Day-15 flow cytometry Q3 / Day-15 flow cytometry Q1: after Expansion Phase 2
Experimental: Recovered cells after Expansion Phase 0 were then transferred to the G-Rex flask and expanded in rapamycin (Expansion Phase 1; Days 3-10) to allow DISC edTreg enrichment, followed by addition of anti-CD3/CD28 beads (Expansion Phase 2; Days 10-15). The same AAV construct as shown in FIG. 13A was used in this experiment.
After Expansion Phase 1 (Day 10), successfully edited cells were assessed by flow cytometry.

CD4+ T cells [3] = assay: Regulatory T cell marker phenotype of DISC-expressing edited Treg cells; type: cell-based, human; details: IL-2 50 ng/mL, rapamycin 10 nM or AP21967 100 nM
μDISC GFP edTreg = assay: In vivo expansion of μDISC GFP edTreg by rapamycin in humanized mouse model; parameters: species or system NOD-scid-IL2RgNULL (NSG) mice; details: for CD25+ GFP+ edTreg cells / CD25− GFP+ edTreg cells / CD127+ GFP+ edTreg cells / CD127− GFP+ edTreg cells: peripheral blood seven days post-transfer, rapamycin 0.1 mg/kg i.p. every other day, representative mouse
Experimental: This Example describes experiments performed to test the capacity of edTreg cells expressing a μDISC construct to be expanded in vivo by rapamycin treatment. […] There are also conditions under which it is not desirable to expand Tregs, for example, in some cases of infection. Therefore, a useful feature of engineered cells provided herein having Treg features is the ability to exert control on expansion in vivo. Experiments were carried out to determine whether rapamycin could increase the number of μDISC edTregs in vivo using a humanized mouse model, which included human cells transferred into immune-incompetent NOD-scid-IL2RgNULL (NSG) mice. For these experiments, cells were edited using an AAV donor to drive cis-linked expression of the μDISC and endogenous FOXP3 from the MND promoter. This AAV donor template incorporates a GFP fusion protein at the N-terminal of endogenous FOXP3. The GFP-labeled FOXP3 fusion protein was used to facilitate the ability to detect gene-edited cells within the in vivo cell samples. […] The beads were then removed at Day −1. […] In the three-phase expansion protocol used in this experiment, the timing of Expansion Phase 0 flow cytometry was on Day 2. Recovered cells after Expansion Phase 0 were then transferred to the G-rex® flask and expanded in the presence of 10 nM rapamycin to select edited cells (Expansion Phase 1; Days 3-9) and to allow DISC edTreg enrichment, followed by flow cytometry and addition of anti-CD3/CD28 beads (Expansion Phase 2; Days 9-16; in the presence of 10 nM rapamycin). Flow cytometry was performed at Days 2, 9, 12, and 16 to monitor edited GFP+FOXP3+ cell expansion.
NSG mice were pre-treated with rapamycin in order to saturate rapamycin binding proteins and provide rapamycin in serum.
The μDISC GFP edTregs (or mock-edited cells) were then injected i.v. according to the following general procedure. Starting from Day −4, intraperitoneal (i.p.) injection of rapamycin 0.1 mg/kg was carried out every other day until Day 21. At Day 0, irradiation was performed and μDISC edTreg was i.v. injected. Peripheral blood samples were collected to either test for rapamycin levels (Day 2) or for flow cytometry (Days 7, 14, 21, and 28) to track the phenotype and number of transferred human T cells including GFP+ edTreg cells.
To illustrates expansion of μDISC GFP edTreg in rapamycin treated vs. vehicle, flow cytometry results from peripheral blood seven days post-transfer into NSG are shown in Table 11 below (Gate: live, hCD45+, hCD4+), where human T cell markers and GFP+ are shown for a representative mouse from each cohort.

[4] = Expansion Phase 0 additive, 10 nM rapamycin or 100 nM AP21967
[5] = peripheral blood Day 7 and Day 14, rapamycin treated vs. vehicle

Structure (SMILES)	percentage of double positive cells (expressing HA-FOXP3), DISC/HA-FOXP3 (CD4+ T cells [1]; 7 day post-treatment) [%]	percentage of double positive cells (expressing HA-FOXP3), Mock (CD4+ T cells [1]; 7 day post-treatment) [%]	percentage of double positive cells (expressing HA-FOXP3), DISC/HA-FOXP3 (CD4+ T cells [1]; 15 day post-treatment) [%]	Day-3 flow cytometry Q4 [2] [%]	Day-3 flow cytometry Q3 [2, 4] [%]	Day-3 flow cytometry Q1 [2, 4] [%]	Day-10 flow cytometry Q3 [2] [%]	Day-10 flow cytometry Q4 [2] [%]	Day-10 flow cytometry Q1 [2, 4] [%]	Day-15 flow cytometry Q4 [2] [%]	Day-15 flow cytometry Q3 [2, 4] [%]	Day-15 flow cytometry Q1 [2, 4] [%]	CD25+ FOXP3+ (CD4+ T cells [3]) [%]	CD25+ FOXP3− (CD4+ T cells [3]) [%]	CD 127+ FOXP3+ (CD4+ T cells [3]) [%]	CD 127+ FOXP3− (CD4+ T cells [3]) [%]	CTLA4+ FOXP3+ (CD4+ T cells [3]) [%]	CTLA4+ FOXP3− (CD4+ T cells [3]) [%]	ICOS+ FOXP3+ (CD4+ T cells [3]) [%]	ICOS+ FOXP3− (CD4+ T cells [3]) [%]	other results
CO[C@H]1[C@@H](O)[C@H](C)C[C@H](C)/C=C/C=C/C=C(\C)[C@@H](c2c[nH]c3c(C)cccc23)C[C@@H]2CC[C@@H](C)[C@@](O)(O2)C(=O)C(=O)N2CCCC[C@H]2C(=O)O[C@H]([C@H](C)C[C@@H]2CC[C@@H](O)[C@H](OC)C2)C[C@H](O)[C@H](C)/C=C(\C)[C@H]1O [AP21967, C-16-(S)-7-methylindolerapamycin]	45.7	0.033	82.1	86.00	1.74	0.39	5.54	13.3	0.59	10.7	4.93	0.33	22.5	20.4	1.63	40.3	13.6	30.8	36.8	2.99	Day-3 flow cytometry Q2 ([2]; Q2 = HA+ FOXP3+ successfully edited cells, Expansion Phase 0 additive, 10 nM rapamycin or 100 nM AP21967): 11.90%; LAG3+ FOXP3+ (CD4+ T cells [3]): 8.81%; LAG3+ FOXP3− (CD4+ T cells [3]): 31.5%
CO[C@H]1C[C@@H]2CC[C@@H](C)[C@@](O)(O2)C(=O)C(=O)N2CCCC[C@H]2C(=O)O[C@H]([C@H](C)C[C@@H]2CC[C@@H](O)[C@H](OC)C2)CC(=O)[C@H](C)/C=C(\C)[C@@H](O)[C@@H](OC)C(=O)[C@H](C)C[C@H](C)/C=C/C=C/C=C/1C [Rapamycin, (3S,6R,7E,9R,10R,12R,14S,15E,17E,19E,21S,23S,26R,27R,34aS)-9,10,12,13,14,21,22,23,24,25,26,27,32,33,34,34a-hexadecahydro-9,27-dihydroxy-3-[(1R)-2-[(1S,3R,4R)-4-hydroxy-3-methoxycyclohexyl]-1-methylethyl]-10,21-dimethoxy-6,8,12,14,20,26-hexamethyl-23,27-epoxy-3H-pyrido[2,1-c][1,4] oxaazacyclohentriacontine-1,5,11,28,29 (4H,6H,31H)-pentone]	47.6	0.022	85.6	91.70	1.48	0.38	9.31	20.1	0.44	15.7	7.56	1.08	28.9	14.5	1.47	40.8	15.5	29.4	38.2	2.38	CD25+ GFP+ edTreg cells (μDISC GFP edTreg; No Radiation): 79.9%; CD25− GFP+ edTreg cells (μDISC GFP edTreg; No Radiation): 8.37%; CD127+ GFP+ edTreg cells (μDISC GFP edTreg; No Radiation): 0.57; CD127− GFP+ edTreg cells (μDISC GFP edTreg; No Radiation): 88.2; CD25+ GFP+ edTreg cells (μDISC GFP edTreg; Radiation (200 Gy), gate live, hCD45+, hCD4+): 82.6%; CD25− GFP+ edTreg cells (μDISC GFP edTreg; Radiation (200 Gy)): 5.52%; CD127− GFP+ edTreg cells (μDISC GFP edTreg; Radiation (200 Gy)): 87.6; CD127+ GFP+ edTreg cells (μDISC GFP edTreg; Radiation): 0.50; number of GFP+ cells in serum sample (μDISC GFP edTreg; [5]): higher; percentage of GFP+ cells (μDISC GFP edTreg; [5]): higher; levels of μDISC GFP edTreg in the peripheral blood (FIG. 17) (μDISC GFP edTreg; tracked weekly for four weeks, rapamycin treated vs. untreated mice): higher levels of μDISC GFP edTreg at each time point, peaking between two and three weeks after cell transfer; LAG3+ FOXP3+ (CD4+ T cells [3]): 7.86%; LAG3+ FOXP3− (CD4+ T cells [3]): 33.3%
